Source: patent US12168005B2, “Methods for treating wild type isocitrate dehydrogenase 1 cancers” (University Hospitals Cleveland Medical Center, priority 2019, dated 2024)

Assays:
wild type IDH1 = biological target: T1, wild type IDH1 (Homo sapiens, UniProt O75874); experiment: wild type IDH1 enzyme activity at varying Mg2+ concentrations (FIG. 19); type: cell-based; settings: 1 μM, Mg2+ below 0.4 mM
T1 construct: endogenous in cells; host or cells: MiaPaCa2
From the text: In one embodiment, the cancer treated in accordance with any of the invention's methods contains cancer cells having a lower Magnesium^2+ (Mg^2+) concentration compared to Mg^2+ concentration in serum, such as serum from the subject and/or serum from a control subject lacking cancer.

[1] = system: wild type IDH1 pancreatic cancer (MiaPaCa2 cell line) xenografts; experiment: pancreatic xenograft study (MiaPaCa2); type: in vivo, mice; settings: oral 150 mg/kg
From the text: FIG. 7. […] No toxicity to mice occurred at these oral doses.
No toxicity was observed.

[2] = 500 mg daily in humans; cited from earlier work
[3] = system: pancreatic cancer cell line (Panc1) cells; experiment: reactive oxygen species (ROS) levels in Panc1 cells; type: cell-based; settings: 1 μM, zero mM magnesium ion, 2.5 mM glucose, Panc1, 48 hours
Method: ROS levels were measured by measuring 2′,7′-dichlorodihydrofluorescein diacetate (DCFDA) or MitoSOX as previously described (Zarei et al. (2017) Cancer Res; 77(16) 4460-4471).
Importantly, these low magnesium ion and low glucose conditions were consistent with the pancreatic cancer tumor microenvironment (FIG. 6).

T1 sequence (O75874 2-414): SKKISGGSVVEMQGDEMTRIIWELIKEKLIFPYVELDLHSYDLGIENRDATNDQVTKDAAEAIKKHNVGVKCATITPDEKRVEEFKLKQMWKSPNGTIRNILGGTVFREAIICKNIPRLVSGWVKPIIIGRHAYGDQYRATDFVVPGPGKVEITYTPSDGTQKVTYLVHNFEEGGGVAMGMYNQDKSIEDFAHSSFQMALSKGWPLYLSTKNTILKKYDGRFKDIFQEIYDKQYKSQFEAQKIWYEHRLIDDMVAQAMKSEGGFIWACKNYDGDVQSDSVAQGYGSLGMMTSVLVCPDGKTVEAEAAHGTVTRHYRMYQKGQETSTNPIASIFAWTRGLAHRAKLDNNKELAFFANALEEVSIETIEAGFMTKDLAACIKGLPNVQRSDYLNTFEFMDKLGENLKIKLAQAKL

Structure (SMILES): N#Cc1ccnc(N2C(=O)CC[C@H]2C(=O)N(c2cncc(F)c2)[C@H](C(=O)NC2CC(F)(F)C2)c2ccccc2Cl)c1 [AG-120, Ivosidenib]
- reduction of wild type IDH1 enzyme activity (wild type IDH1): 50%
- toxicity to mice [1]: No toxicity
- plasma concentration [2]: 130 µM
- increase in ROS [3]: 3 fold
